Data: the supplement of paper PMC9663587

Assays:
BSJ-03-123 = compound: CC(=O)c1c(C)c2cnc(Nc3ccc(N4CCN(CCOCCOCCOCCNC(=O)COc5cccc6c5C(=O)N(C5CCC(=O)NC5=O)C6=O)CC4)cn3)nc2n(C2CCCC2)c1=O [BSJ-03-123]; test: increase in dead-cell fraction, 72 h; higher = more death;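 note: breast cancer cell lines in 384-well plates, stained with Hoechst plus LIVE/DEAD far red dye and imaged, cells above an LDR intensity threshold counted dead, Hoechst-negative corpses included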
[1] = compound: CC(=O)c1c(C)c2cnc(Nc3ccc(N4CCNCC4)cn3)nc2n(C2CCCC2)c1=O; test: as above
[2] = compound: CCN1CCN(Cc2ccc(Nc3ncc(F)c(-c4cc(F)c5nc(C)n(C(C)C)c5c4)n3)nc2)CC1; test: as above
Neratinib/HKI272 = compound: CCOc1cc2ncc(C#N)c(Nc3ccc(OCc4ccccn4)c(Cl)c3)c2cc1NC(=O)/C=C/CN(C)C [Neratinib/HKI272]; test: as above
[3] = compound: CCc1cnn2c(NCc3ccc[n+]([O-])c3)cc(N3CCCC[C@H]3CCO)nc12; test: as above
LEE011/Ribociclib = compound: CN(C)C(=O)c1cc2cnc(Nc3ccc(N4CCNCC4)cn3)nc2n1C1CCCC1 [LEE011/Ribociclib]; test: as above
THZ1 [4] = compound: T1, CN(C)C/C=C/C(=O)Nc1ccc(C(=O)Nc2cccc(Nc3ncc(Cl)c(-c4c[nH]c5ccccc45)n3)c2)cc1 [THZ1]; test: as above
Flavopiridol [5] = compound: T2, CN1CC[C@H](c2c(O)cc(O)c3c(=O)cc(-c4ccccc4Cl)oc23)[C@H](O)C1 [Flavopiridol]; test: as above
[6] = compound: CC(=O)c1c(C)c2cnc(Nc3ccc(N4CCNCC4)cn3)nc2n(C2CCCC2)c1=O; test: GR value, 72 h; higher = faster growth (1 = untreated, <0 = killing);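 note: breast cancer and non-malignant breast epithelial lines, nine half-log doses, viable cells counted by Hoechst and LIVE/DEAD dye imaging versus time-zero plates and DMSO controls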
THZ531 = compound: CN(C)C/C=C/C(=O)Nc1ccc(C(=O)N2CCC[C@@H](Nc3ncc(Cl)c(-c4c[nH]c5ccccc45)n3)C2)cc1 [THZ531]; test: as above
THZ1 [7] = compound: T1, THZ1; test: as above
Flavopiridol [8] = compound: T2, Flavopiridol; test: as above

Question: Which results are given for PDX1328?
Answer: increase in dead-cell fraction (BSJ-03-123; 0.001 µM): -0.0042; increase in dead-cell fraction (BSJ-03-123; 0.003162 µM): -0.0045; increase in dead-cell fraction (BSJ-03-123; 0.01 µM): -0.0076; increase in dead-cell fraction (BSJ-03-123; 0.03162 µM): -0.0013; increase in dead-cell fraction (BSJ-03-123; 0.1 µM): -0.006; increase in dead-cell fraction (BSJ-03-123; 0.3162 µM): -0.0065; increase in dead-cell fraction (BSJ-03-123; 1 µM): -0.0104; increase in dead-cell fraction (BSJ-03-123; 3.162 µM): -0.0015; increase in dead-cell fraction (BSJ-03-123; 10 µM): 0.0283; increase in dead-cell fraction ([1]; 0.0003162 µM): -0.0028; increase in dead-cell fraction ([1]; 0.001 µM): 0.0004; increase in dead-cell fraction ([1]; 0.003162 µM): -0.0023; increase in dead-cell fraction ([1]; 0.01 µM): 0.0019; increase in dead-cell fraction ([1]; 0.03162 µM): -0.005; increase in dead-cell fraction ([1]; 0.1 µM): 0.0014; increase in dead-cell fraction ([1]; 0.3162 µM): -0.0028; increase in dead-cell fraction ([1]; 1 µM): 0.0026; increase in dead-cell fraction ([1]; 3.162 µM): 0.0055; increase in dead-cell fraction ([2]; 0.001 µM): 0.0018; increase in dead-cell fraction ([2]; 0.003162 µM): -0.0052; increase in dead-cell fraction ([2]; 0.01 µM): 0.0039; increase in dead-cell fraction ([2]; 0.03162 µM): 0.0167; increase in dead-cell fraction ([2]; 0.1 µM): 0.0116; increase in dead-cell fraction ([2]; 0.3162 µM): 0.0089; increase in dead-cell fraction ([2]; 1 µM): 0.0192; increase in dead-cell fraction ([2]; 3.162 µM): 0.029; increase in dead-cell fraction ([2]; 10 µM): 0.475; increase in dead-cell fraction (Neratinib/HKI272; 0.0003162 µM): 0.0026; increase in dead-cell fraction (Neratinib/HKI272; 0.001 µM): 0.0005; increase in dead-cell fraction (Neratinib/HKI272; 0.003162 µM): 0.002; increase in dead-cell fraction (Neratinib/HKI272; 0.01 µM): -0.0007; increase in dead-cell fraction (Neratinib/HKI272; 0.03162 µM): 0.0044; increase in dead-cell fraction (Neratinib/HKI272; 0.1 µM): 0.0093; increase in dead-cell fraction (Neratinib/HKI272; 0.3162 µM): 0.0044; increase in dead-cell fraction (Neratinib/HKI272; 1 µM): 0.0158; increase in dead-cell fraction (Neratinib/HKI272; 3.162 µM): 0.0733; increase in dead-cell fraction ([3]; 0.0001 µM): -0.0005; increase in dead-cell fraction ([3]; 0.0003162 µM): 0.0028; increase in dead-cell fraction ([3]; 0.001 µM): -0.0033; increase in dead-cell fraction ([3]; 0.003162 µM): -0.0053; increase in dead-cell fraction ([3]; 0.01 µM): -0.0021; increase in dead-cell fraction ([3]; 0.03162 µM): 0.113; increase in dead-cell fraction ([3]; 0.1 µM): 0.187; increase in dead-cell fraction ([3]; 0.3162 µM): 0.19; increase in dead-cell fraction ([3]; 1 µM): 0.213; increase in dead-cell fraction (LEE011/Ribociclib; 0.001 µM): -0.0001; increase in dead-cell fraction (LEE011/Ribociclib; 0.003162 µM): -0.0049; increase in dead-cell fraction (LEE011/Ribociclib; 0.01 µM): -0.0091; increase in dead-cell fraction (LEE011/Ribociclib; 0.03162 µM): -0.0001; increase in dead-cell fraction (LEE011/Ribociclib; 0.1 µM): 0.0131; increase in dead-cell fraction (LEE011/Ribociclib; 0.3162 µM): 0.0012; increase in dead-cell fraction (LEE011/Ribociclib; 1 µM): -0.0011; increase in dead-cell fraction (LEE011/Ribociclib; 3.162 µM): 0.005; increase in dead-cell fraction (LEE011/Ribociclib; 10 µM): 0.0126; increase in dead-cell fraction (THZ1 [4]; 0.0001 µM): -0.0047; increase in dead-cell fraction (THZ1 [4]; 0.0003162 µM): -0.0031; increase in dead-cell fraction (THZ1 [4]; 0.001 µM): -0.0014; increase in dead-cell fraction (THZ1 [4]; 0.003162 µM): -0.0053; increase in dead-cell fraction (THZ1 [4]; 0.01 µM): 0.0031; increase in dead-cell fraction (THZ1 [4]; 0.03162 µM): 0.0436; increase in dead-cell fraction (THZ1 [4]; 0.1 µM): 0.123; increase in dead-cell fraction (THZ1 [4]; 0.3162 µM): 0.225; increase in dead-cell fraction (THZ1 [4]; 1 µM): 0.432; increase in dead-cell fraction (Flavopiridol [5]; 0.0001 µM): 0.003; increase in dead-cell fraction (Flavopiridol [5]; 0.0003162 µM): -0.0035; increase in dead-cell fraction (Flavopiridol [5]; 0.001 µM): -0.0003; increase in dead-cell fraction (Flavopiridol [5]; 0.003162 µM): -0.0025; increase in dead-cell fraction (Flavopiridol [5]; 0.01 µM): -0.0027; increase in dead-cell fraction (Flavopiridol [5]; 0.03162 µM): -0.0044; increase in dead-cell fraction (Flavopiridol [5]; 0.1 µM): -0.0014; increase in dead-cell fraction (Flavopiridol [5]; 0.3162 µM): 0.0342; increase in dead-cell fraction (Flavopiridol [5]; 1 µM): 0.348; GR value ([6]; 0.0003162 µM): 1.04 GR; GR value ([6]; 0.001 µM): 1.1 GR; GR value ([6]; 0.003162 µM): 1.06 GR; GR value ([6]; 0.01 µM): 0.938 GR; GR value ([6]; 0.03162 µM): 0.751 GR; GR value ([6]; 0.1 µM): 0.557 GR; GR value ([6]; 0.3162 µM): 0.518 GR; GR value ([6]; 1 µM): 0.414 GR; GR value ([6]; 3.162 µM): 0.399 GR; GR value (THZ531; 0.0001 µM): 0.957 GR; GR value (THZ531; 0.0003162 µM): 0.973 GR; GR value (THZ531; 0.001 µM): 0.939 GR; GR value (THZ531; 0.003162 µM): 1.11 GR; GR value (THZ531; 0.01 µM): 0.84 GR; GR value (THZ531; 0.03162 µM): 0.788 GR; GR value (THZ531; 0.1 µM): 0.153 GR; GR value (THZ531; 0.3162 µM): -0.45 GR; GR value (THZ531; 1 µM): -0.532 GR; GR value (THZ1 [7]; 0.0001 µM): 0.984 GR; GR value (THZ1 [7]; 0.0003162 µM): 1.06 GR; GR value (THZ1 [7]; 0.001 µM): 1.11 GR; GR value (THZ1 [7]; 0.003162 µM): 0.868 GR; GR value (THZ1 [7]; 0.01 µM): 0.532 GR; GR value (THZ1 [7]; 0.03162 µM): -0.0495 GR; GR value (THZ1 [7]; 0.1 µM): -0.397 GR; GR value (THZ1 [7]; 0.3162 µM): -0.435 GR; GR value (THZ1 [7]; 1 µM): -0.711 GR; GR value (Flavopiridol [8]; 0.0001 µM): 1.06 GR; GR value (Flavopiridol [8]; 0.0003162 µM): 1.06 GR; GR value (Flavopiridol [8]; 0.001 µM): 0.963 GR; GR value (Flavopiridol [8]; 0.003162 µM): 0.955 GR; GR value (Flavopiridol [8]; 0.01 µM): 1.01 GR; GR value (Flavopiridol [8]; 0.03162 µM): 1.08 GR; GR value (Flavopiridol [8]; 0.1 µM): 0.909 GR; GR value (Flavopiridol [8]; 0.3162 µM): 0.239 GR; GR value (Flavopiridol [8]; 1 µM): -0.603 GR
